Measurements reported in patent US11730722B2, “Corneal endothelium ECM therapeutic medicaments” (KYOTO PREFECTURAL PUBLIC UNIVERSITY CORPORATION, priority 2013, dated 2023).

Legend:
Type in all cases: cell-based, human
iFECD [1] = experiment: Real-time PCR of gene expression with TGF-beta signal inhibiting agent SB431542; details: SB431542 0, 1, 3, 10 μM, FIG. 7, p<0.01
Description: Real-time PCR method: In addition, PCR was performed by a Taqman method for Snail1, Snail2, or ZEB1 in accordance with the following method. A Taqman probe was purchased from INVITROGEN. The mRNA amount of collagen type I, collagen type IV, and Fibronectin was examined by a real-time PCR method. RNEasy (QIAGEN, Catalog number: 74106) was used in extraction of the total RNA from cells. The extracted RNA was subjected to a reverse transcription reaction (42° C., 60 minutes) with ReverTra Ace (TOYOBO Co., Ltd., Catalog number: TRT-101), and collagen type I, collagen type IV, and Fibronectin were amplified with a reaction reagent TaqMan Fast Advanced mastermix (Applied Biosystems) using GAPDH as an internal standard. Probes (a labeled primer set available from Applied Biosystems) described below was used in the PCR reaction, which was performed in the StepOne™ (Applied Biosystems) real-time PCR system. It was then examined whether a TGF-beta signal inhibiting agent, SB431542, can be used to inhibit a TGF-beta signal and adjust extracellular matrix abnormality in a corneal endothelium. SB431542 was obtained from TOCRIS Corporation (Catalog number: 1614). The gene expression amount was confirmed by real-time PCR. Real-time PCR was carried out in accordance with the above-described examples. The following probes were used for collagen type I, collagen type IV, collagen type VIII, and Fibronectin. Collagen type I Hs00164004_ml COL1A1 Collagen type IV Hs00266327_ml COL4A1 Collagen type VIII Hs00697025_ml COL8A2 Fibronectin Hs01549976_ml FN1 GAPDH TaqMan® pre developed Assay Reagents Human GADPH (cat no.: 4333764F)

iFECD [2] = experiment: Immunostaining of extracellular matrix-constituting proteins with SB431542; details: FIG. 8
Description: For a tissue staining test, cultured cells were put in Lab-TekTM Chamber SlidesTM (NUNC A/S, Roskilde, Denmark), fixed with 4% formaldehyde for 10 minutes at room temperature (RT), and incubated with 1% bovine serum albumin (BSA) for 30 minutes. […] In order to examine expression of an extracellular matrix produced by cells, a 1:200 dilution of each of antibodies against collagen type I, collagen type IV, and Fibronectin was used to carry out. For a secondary antibody, a 1:2000 dilution of Alexa Fluor (registered trademark) 488 labeled, or Alexa Fluor (registered trademark) 594 labeled goat anti-mouse IgG (Life Technologies) was used. Cell nuclei were then stained with DAPI (Vector Laboratories, Inc., Burlingame, Calif.) or PI (Sigma-Aldrich). A slide was then observed under a fluorescence microscope (TCS SP2 AOBS; Leica Microsystems, Welzlar, Germany). Then, expression of collagen type I, collagen type IV, and Fibronectin was similarly examined by immunostaining. The immunostaining was carried out in accordance with the above-described examples, provided that the following antibodies were used as antibodies for collagen type I, collagen type IV, and Fibronectin. An antibody against collagen type I: Anti collagen type I (Rabbit polyclonal) ([…] antibodies and assays, Cat no.: 600-401-103S) An antibody against collagen type IV: collagen type IV (Rabbit polyclonal)(Abcam, Cat no.: ab6586) An antibody against Fibronectin: Anti-fibronectin (mouse monoclonal) (BD Biosciences, Cat no.: 610077)

iFECD [3] = experiment: HE-staining of extracellular matrix on Transwell with SB431542; details: iFECD on Transwell without serum, fixed one week later; FIG. 9; p<0.01
Description: The iHCEC and the iFECD were cultured in DMEM on Transwell without serum, one week after which they were fixed in a confluent state and HE-stained. The procedure is as described below. If required, deparaffinization (for example, with pure ethanol) and water washing were carried out, and the sample was immersed in hematoxylin from Omni for 10 minutes. Thereafter, water washing with running water was performed, and ammonia water was used for developing color for 30 seconds. Thereafter, water washing with running water for 5 minutes, staining for 2 minutes with a ten-fold diluted solution of eosin hydrochloride, dehydration, lucidification, and mounting were performed. […] Further, the iHCEC and the iFECD were cultured on Transwell Permeable Supports: 0.4 μm, six well plates (Costar, Cat no.: 3450) without serum, one week after which they were fixed in a confluent state and HE-stained. The HE-staining was carried out in accordance with the procedure of the above-described examples.

SMILES: NC(=O)c1ccc(-c2nc(-c3ccc4c(c3)OCO4)c(-c3ccccn3)[nH]2)cc1 [SB431542, 4-[4-(1,3-benzodioxol-5-yl)-5-(2-pyridinyl)-1H-imidazol-2-yl]benzamide]
- expression amount of Snail1 (real-time PCR) (iFECD [1]): significant decrease
- expression amount of ZEB1 (real-time PCR) (iFECD [1]): significant decrease
- gene expression of Fibronectin (real-time PCR) (iFECD [1]; iFECD): significantly suppressed
- gene expression of collagen type I (real-time PCR) (iFECD [1]; iFECD): significantly suppressed
- gene expression of collagen type IV (real-time PCR) (iFECD [1]; iFECD): significantly suppressed
- gene expression of collagen type VIII (real-time PCR) (iFECD [1]; iFECD): significantly suppressed
- expression of Fibronectin in a protein level (immunostaining) (iFECD [2]): suppressed
- expression of collagen type I in a protein level (immunostaining) (iFECD [2]): suppressed
- expression of collagen type IV in a protein level (immunostaining) (iFECD [2]): suppressed
- expression of collagen type VIII in a protein level (immunostaining) (iFECD [2]): suppressed
- overproduction of an extracellular matrix (thickness, HE-staining) (iFECD [3]): suppressed overproduction of an extracellular matrix in the iFECD to result in the normal level
